Assay results from US5955434A, “Gel-forming polypeptide derivatives” (Brigham & Women's Hospital, priority 1996, dated 1999).
Each block holds one molecule with its values, some of them ahead of it. Residues, ends and D or L forms follow the SMILES beside them. *: point of attachment. Fmoc = O=C(OCC1c2ccccc2-c2ccccc21)*; Boc = CC(C)(C)OC(=O)*

Key:
rabbits = assay: Immunization of rabbits, antibody titers (double diffusion in agarose gel, reverse radial diffusion, passive hemagglutination); type: in vivo, rabbit; details: for production of specific antibodies, injected alone: rabbits, Ada2Me 5 mM, AdaMeC 33 mM
Procedure: (§1) The low molecular weight drugs 3,5-dimethyl-1-adamantanamine hydrochloride (Ada2Me) and 5-methyl-1-adamantanamine 3-carboxylic acid (AdaMeC) can also be incorporated into the Fmoc-Leu-Asp gels (10 mg/ml=21 mM) at concentrations of […] and 33 mM, respectively. At higher total concentrations, (>5 mM Ada2Me or >33 mM AdaMeC) these agents inhibit gelation. […] Fmoc-Leu-Asp alone produced antibodies with titers no greater than 1:4.
Female random-bred rabbits were immunized three times, at weekly intervals and bled on the 24th day. A full dose was used for the first two immunizations, and a half of the full dose for the third immunization. Full doses of the BSA conjugates were 100 μg total protein. Before injections, AdaMeC-BSA and AdaMeC-Bal-BSA solutions were diluted with equal volumes of complete Freund's adjuvant, but AdaMeC+dipeptide gel was diluted with an equal volume of 0.01M phosphate buffer; pH 7.4. The volume of immunogen solutions injected each time was 1 ml. Immune sera were analyzed by two immunoprecipitation assays, the double diffusion in agarose gel and the reverse radial immunodiffusion, as described by Oudin, J. Meth. Enzymol., 70, 166-98 (1980). As shown in FIG. 8A double diffusion in agarose was used to determine the titer of antibodies recognizing AdaMeC-containing conjugates in sera of rabbits immunized with AdaMeC-coupled with or without a beta-alanine (Bal) spacer to BSA in complete Freunds adjuvant or with AdaMeC mixed with Fmoc-Leu-Asp without adjuvant. The antisera were tested against each of the three immunogens and compared to sera of rabbits injected with either AdaMeC or Fmoc-Leu-Asp-alone. And as shown in FIG. 8B the passive hemagglutination test, as described in Adler, F. L. & Adler, L. T., Meth. Enzymol., 70, 455-66 (1980), was used to analyze antisera of rabbits immunized with each of the three AdaMeC conjugates after challenge with the three AdaMeC conjugates, AdaMeC alone or Ada2Me. In the first two assays, the solid phase was 1% agarose containing 0.8% sodium chloride. The sample volumes were 25 μl. The probes were incubated for 72 h at 37° C. […]

[1] = Incorporation of low molecular weight drugs into Fmoc-Leu-Asp gels; type: physicochemical; details: Fmoc-Leu-Asp gel 10 mg/ml=21 mM
Procedure: as §1

[2] = methanol and cyclohexane; cited from earlier work
[3] = Aqueous gel formation of Fmoc-protected peptides; type: physicochemical; details: for Gel formed / Gel formed (minimum conc., %): aqueous gels
Procedure: Aqueous gels of the synthesized compounds can be made by several methods which are outlined here and more fully described in the examples.
1. Finely ground dipeptide or tripeptide compound is suspended in boiling water, the mixture is briefly and vigorously mixed or shaken and left to cool. Between 50-60° C. gelation occurrs. This procedure can be repeated to obtain a more homogeneous mixture and a stronger gel.
2. The dipeptide or tripeptide compound is dissolved in a minimal volume of organic solvent which is miscible in water, and at room temperature a small volume of the solution is added to a large volume of water with rapid mixing, after which the gel forms.
3. Methods 1 and 2 can be combined.
(§2) Boil 10 ml water and suspend in it 0.8% finely ground compound 5 of Table 2. Strongly shake or stir the suspension then let stand 10-15 minutes. On cooling the solution becomes turbid at 50-60° C. and at room temperature a gel forms. The gel can be reheated, agitated and recooled. When repeated several times, a stronger gel forms.

[4] = Shear modulus by free oscillations using a torsion pendulum; type: physicochemical
Procedure: From this curve is calculated the shear modulus G^1.
The shear modulus was measured by free oscillations using a torsion pendulum. The theory and description of the method are described in Plazek D., Vrancke., Berge J., Trans. Soc. Rheol. 2, 38-47 (1958); Ferry J. Viscoelastic Properties of Polymers, Wiley New York (1980), and Janmey P., et al., J. Rheol. 27, 135-153 (1993). Gels are formed by method 1 using Tris buffer pH7.4. The peptide concentration in FIG. 1 is 2.5 mg/ml (0.25%). […] This denotes the moderately high elastic strength of this gel.

[5] = Low strain oscillatory rheology (Rheometrics RFSII); type: physicochemical
Procedure: (triangles.) and 20° C. (circles). Other experimental conditions are as described for FIG. 6B.
Other experimental conditions and symbols are as described for FIG. 6C.
Of particular interest in this invention are the gels formed with Fmoc-Leu-Asp. At concentrations between 1 mg/ml and 1.5 mg/ml solutions of Fmoc-Leu-Asp undergo an abrupt increase in light scattering at both 20° C. and 60° C., as shown in FIG. 6A wherein 1 ml solutions in 1 cm diameter cylindrical cells were measured with a Brookhaven Instruments BI30ATN apparatus using a 633 nm 10 mW laser. When a solution of 2 mg/ml dipeptide is cooled from 100° C. to 60° C., viscoelastic parameters characteristic of a gel are obtained by low strain oscillatory measurements. The storage shear storage modulus, G', a measure of the elastic strength of the material, reaches a stable level of 80 Pa within several minutes (FIG. 6B). These measurements were made using a Rheometrics RFSII instrument1. The maximal shear strain was 1% for oscillatory deformation at a frequency of 1 rad/s. […] NY Acad. Sci. 408, 1-10, (1983) or F-actin, as shown in Janmey P. A. et al., Biochemistry 27, 8218-8227 (1988). […] G', shear storage modulus, depends weakly on frequency from 0.1 to 100 rad/s, and is much larger than the shear loss modulus G" (FIG. 6C). […]

[6] = Gel drying (evaporation of water); type: physicochemical
Procedure: Gels containing either 0.5-0.6% or 0.8% compound 5, gelatin, or starch are disolved in water at 90° C. and briefly cooled. The solutions (0.8 ml) are poured into shallow plastic dishes (17 mm inner diameter). On reaching room temperature, the dishes are weighed and left with desicants but without vacuum to dry. […] After 15 hours, the compound 5 gel has lost 57% of its water, but the gelatine and starch solutions have lost 70% and 87% of their water, respectively.

[7] = Solubility in water (Example 2); type: physicochemical
Procedure: as §2
Compound 5 is soluble below 0.8%. At concentrations below 0.4% little or no gel forms. When such a solution is evaporated to 50% volume and then heated and cooled, a gel forms.

[8] = Preparation of gels in ethylether; type: physicochemical; details: diethylether gel, -5° C.
Procedure: Suspend 150-200 mg finely ground compound 5 of table 2 in 10 mL boiling diethylether. Shake suspension, filter and let sit 30-60 minutes at -5° C. On cooling a gel forms. The peptide concentration can be measured by weighing the gel, and evaporating the solvent in vacuum to a constant weight. In this way a solute concentration of 1-1.2% was found.

[9] = chloroform; cited from earlier work

Compound: CC12CC3CC(C)(C1)CC(N)(C3)C2.Cl [Ada2Me, 3,5-dimethyl-1-adamantanamine hydrochloride]
production of specific antibodies, injected alone (rabbits): neither Ada2Me (5 mM) nor AdaMeC (33 mM) produced specific antibodies | concentration incorporated into Fmoc-Leu-Asp gels [1]: 1000 µM | total concentration that inhibits gelation [1]: > 5 mM

Compound: CC12CC3CC(N)(C1)CC(C(=O)O)(C3)C2.Cl (stereo not shown) [AdaMeC, 5-methyl-1-adamantanamine 3-carboxylic acid hydrochloride]
production of specific antibodies, injected alone (rabbits): neither Ada2Me (5 mM) nor AdaMeC (33 mM) produced specific antibodies | concentration incorporated into Fmoc-Leu-Asp gels [1]: 33000 µM | total concentration that inhibits gelation [1]: > 33 mM

Compound: CCCCCCCCCCCCCCCC(=O)c1ccc(OC(=O)[C@H](C)NC(=O)OCc2ccccc2)c([N+](=O)[O-])c1 [N-benzyl-oxycarbonyl L-alanine 4-hexadecanoyl-2nitrophenyl ester]
concentration at which thermally reversible gels form [2]: below 1%

Compound: NC12CC3CC(CC(C3)C1)C2 [adamantamine]
antibody production in rabbits (rabbits; trapped in Fmoc-Leu-Asp gels without additional adjuvant, versus covalently linked to BSA and injected with adjuvant): at least as efficiently

Gel formed [3]: Yes | Gel formed (minimum conc., %) [3]: 0.4%
Compound: CC[C@H](C)[C@H](NC(=O)OCC1c2ccccc2-c2ccccc21)C(=O)N[C@@H](CC(=O)O)C(=O)O [compound 2, Fmoc--ile--Asp] (Fmoc-Ile-Asp-OH)

shear modulus ([4]; 2.5 mg/ml (0.25%), Tris buffer pH7.4, gel formed by method 1): 3.1 Pa | saturation concentration ([4]; Tris buffer pH7.4): ~5 mg/mL | storage shear modulus G' ([5]; 2 mg/ml, cooled from 100° C. to 60° C., 1% maximal shear strain, 1 rad/s, stable level within several minutes): 80 Pa | fall of both shear moduli (G', G") on strain, factor ([5]; samples strained to 10%): 100 | gel formation on cooling ([6]; 0.5-0.6% or 0.8% in water dissolved at 90° C.): forms a gel on cooling | water lost ([6]; after 15 hours, with desicants, without vacuum, room temperature): 57% | concentration at which soluble in water [7]: below 0.8% | solute concentration in the gel [8]: 1-1.2% | gel formation with boric acid ([3]; 0.8% in 3.5% boric acid in boiling water, on cooling): a gel forms | temperature at which the solution becomes turbid on cooling ([3]; 0.8% in boiled water): 50-60 °C | Gel formed [3]: Yes | Gel formed (minimum conc., %) [3]: 0.5% | gel formation in glycerol solution ([3]; solutions of 70% glycerol): forms gels | concentration at which little or no gel forms ([3]; water): below 0.4%
Compound: CC(C)C[C@H](NC(=O)OCC1c2ccccc2-c2ccccc21)C(=O)N[C@@H](CC(=O)O)C(=O)O [compound 5, Fmoc--Leu--Asp] (Fmoc-Leu-Asp-OH)

Compound: CC[C@H](C)[C@H](NC(=O)[C@@H](NC(=O)[C@@H](NC(=O)OC(C)(C)C)C(C)C)C(C)C)C(=O)OC [t-butoxycarbonyl-valyl-valylisoleucine methylester] (Boc-Val-Val-Ile-OMe)
critical micelle concentration [9]: 2.5 mM
